The source of these data is paper PMC8000395, “Effective Small Molecule Antibacterials from a Novel Anti-Protein Secretion Screen” (Microorganisms, 2021).

Each structure is given as a SMILES string. “And” between values parts separate entries of the source, which are not always exact repeats. Equal entries are not always repeated. Where two headings read alike, the source gives them in different places.

For one data set, the system named is E. coli MG1655 LolA. Also noted: method as in PMID 23473681. The settings on record: read-out: IC50 against E. coli MG1655 LolA; cited from earlier work.
The subject of data set [1] is PhoA secretion in E. coli strain BL21 (pLysS). The data set is described as follows: Luminescence-based HTS assay of in vivo PhoA secretion. In kind it is cell-based. The settings on record: for IC50: Escherichia coli, BL21, luminescence-based HTS assay, E. coli BL21, read-out: Inhibition of PhoA Secretion IC50, HTS.
For data set [2], the system named is PhoA secretion in E. coli MC4100. The data set is described as follows: microbe, parasite or virus in culture. As to conditions: for IC50: Escherichia coli, PNPP colorimetric lab-scale assay, read-out: Inhibition of PhoA Secretion IC50, Lab-Scale. In kind it is cell-based.
In a further data set the test system is E. coli BL21. The data set is described as follows: Antimicrobial activity test (growth, OD600). The data set is classed as cell-based. The settings on record: for IC50: Escherichia coli, BL21, BL21, 20 h, 37 °C, OD600, read-out: Bacterial Viability IC50, E. coli BL21.
A further data set has as its system E. coli MC4100. The data set is described as follows: Antimicrobial activity test (growth, OD600). The data set is classed as cell-based. The settings on record: for IC50: Escherichia coli, MC4100, 20 h, 37 °C, OD600, read-out: Bacterial Viability IC50, E. coli MC4100.
In a further data set the test system is E. coli strains. Put plainly: Antimicrobial activity test, E. coli strains (strain not given with the value). As to conditions: for IC50: strain not given, read-out: Growth inhibition IC50, E. coli strains. In kind it is cell-based.
A further data set deals with B. subtilis ATCC6633. The data set is described as follows: Antimicrobial activity test (growth, OD600). In kind it is cell-based. The settings on record: for IC50: Bacillus subtilis, ATCC6633, 20 h, 37 °C, OD600, read-out: Bacterial Viability IC50, B. subtilis ATCC6633.
The test system of another data set is Gram-positive bacteria. The data set is described as follows: Antimicrobial activity test, summary over Gram-positive bacteria. The settings on record: most Gram-positive bacteria. In kind it is cell-based.
The test system of a further data set is E. coli. As to conditions: cited from earlier work.
In data set [3] the test system is PhoA secretion in BW25113ΔtolC. Put plainly: Lab-scale p-nitrophenyl PhoA secretion assay, ΔtolC strain. The data set is classed as cell-based, E. coli.
Data set [4] relates to PhoA secretion in E. coli BW25113. The data set is described as follows: Lab-scale p-nitrophenyl PhoA secretion assay, BW25113. The settings on record: Escherichia coli, read-out: PhoA secretion in vivo IC50, E. coli BW25113. In kind it is cell-based.
The next data set has as its system E. coli BW25113. Put plainly: Antimicrobial activity test (growth, OD600). In kind it is cell-based. The settings on record: Escherichia coli, 20 h, 37 °C, read-out: Bacterial Viability IC50, E. coli BW25113.
A further data set concerns HEK293T cells. As to conditions: human, 24 h. The procedure: Hek293T cells were harvested and diluted obtaining a cell suspension with a concentration of 200,000 cells/mL in complete growth medium (DMEM, 4.5 g/L d-glucose, pyruvate 1 mM, 0.075% bicarbonate and 10% Fetal Bovine serum). Of this cell suspension, 50 µL (10,000/well) was seeded in a 384 well culture plate (white polystyrene, tissue culture treated) and incubated at 37 °C-5% CO2 for 4 h in a moisturized incubator, which enables the cells to adhere. After the incubation, small chemical compounds were diluted in medium and 10 µL of a compound solution was added onto the cells, ending up with the required compound concentration. The cells were incubated for 24 h at 37 °C-5% CO2 in a moisturized incubator where after × µL medium was removed to equalize the liquid levels within one plate ending up with ±25 µL/well. The amount of remaining cells/well was determined with ATPlite^TM 1step (Perkin Elmer) Adenosine TriPhosphate (ATP) monitoring system, which is based on firefly luciferase.
The cytotoxicity was calculated by subtracting RLU (relative light units) obtained from the cells incubated with a compound from the RLUs obtained from cells in the presence of the vehicle.
The cytotoxic effect of a test compound was determined as:
Percent cell death = [1−((RLU determined for sample with test compound present—1) divided by (RLU determined in the presence of vehicle—1))] * 100.

A short description of data set [5]: Turbidimetric kinetic aqueous solubility assay. In kind it is physicochemical. The settings on record: pH 7, aqueous buffer, kinetic from dmso stock, turbidimetry 570 nm, PBS pH 7–7.2, 0.5% DMSO, 1 h; read-out: Aqueous Solubility (soluble at). Here is the method:
The determination of the aqueous solubility of compounds in this assay is based on the principle of turbidimetry. Turbidimetric methods rely on the measurement of light scattering from precipitate in solution to determine the solubility. Precipitation is identified by an absorbance increase due to blockage of the light by the particles at the wavelength of 570 nm. Compounds, stored in matrix vials (Thermo Fisher) at a stock concentration of 30 mM or 10 mM in 100% Dimethyl sulfoxide (DMSO), were used to make a serial dilution (dose-response) in a 96-well v-bottom propylene plate (Greiner, 651201). Serial dilutions are made to perform the solubility assay; they were made row-wise and start with undiluted compound (30 mM or 10 mM) in the first well and were then 1 over 3 diluted further on. The serial dilutions were eight doses long and contain six compounds per plate maximal (rows B-G). Columns 1 and 12 were filled with 100% DMSO for control purposes. The dose-response plates were 200-times diluted in 300 µL Phosphate Buffered Saline (PBS; pH = 7–7.2 without Ca^2+/Mg^2+) (Gibco, 14190-144) by transferring 1.5 µL of serially diluted compound. […] Dilutions were made by diluting one 96-well plate in two 96-well, flat-bottom, polystyrene plates (Greiner, 655101). These plates were then incubated at room temperature for 1h. After 1h incubation, the plates were read on the envision (Perkin Elmer) at 570 nm.
The data of this assay is reported as “Soluble at” value for each compound. This “soluble at” value represents the concentration where the compound is still soluble and is the concentration before the first precipitated concentration. The first precipitated concentration is the concentration where the absorbance value is more than five standard deviations higher than the average background absorbance. The average background absorbance and the standard deviation are calculated on the 0.5% DMSO controls in columns 1 and 12.

Data set [6] relates to Gram-negative and Gram-positive bacteria. Put plainly: Antimicrobial activity test, summary over Gram-negative and Gram-positive bacteria. In kind it is cell-based. The settings on record: 19 Gram-negative and Gram-positive species evaluated.
Another data set concerns E. coli BW25113ΔtolC. The data set is described as follows: Antimicrobial activity test (growth, OD600). The settings on record: for IC50: Escherichia coli, read-out: Viability IC50, BW25113ΔtolC, E. coli strain missing TolC; for Higher sensitivity of ΔtolC and imp-2413+ derivatives compared to BW25113: viability, Figure 5A.
The test system of data set [7] is E. coli BW25113::imp-2413+. The data set is described as follows: Antimicrobial activity test (growth, OD600). As to conditions: Escherichia coli, BW25113, read-out: Viability IC50, BW25113::imp-2413+.
Data set [8] concerns Staphylococcus aureus ATC6538P. Put plainly: Antimicrobial activity test (growth, OD600). In kind it is cell-based. The settings on record: read-out: Bacterial Viability (IC50).
Setting [9] is: Escherichia coli, read-out: Inhibition of PhoA Secretion IC50, Lab-Scale (ΔtolC strain), BW25113ΔtolC, p-nitrophenyl assay.
[10] abbreviates: E. coli BL21, MC4100 or BW25113.
Where [11] appears, read: Escherichia coli, BW25113, BL21, E. coli BL21, MC4100 or BW25113.
The mark [12] stands for this setting: Staphylococcus aureus, ATC6538P.

The term IC50 denotes the midpoint of a concentration-inhibition curve. Regarding `N=C(N)SCc1ccc(Cl)c(Cl)c1` [A22, S-(3,4-dichlorobenzyl)isothiourea], in the data set on E. coli MG1655 LolA, the IC50 was 200 µM.

Take `[N-]=[N+]=[N-].[Na+]` [CC#01, Sodium azide, reference compound]: the “Inhibition of secreted phosphatase activity” value in data set [1] (HTS assay conditions, sodium azide 4 mM positive control) is recorded as > 90%. The “Level of secreted PhoA remaining” value in [2] (sodium azide, Figure 2A, assay format not stated) was ~ 17%. Besides, the “Bacterial Viability, E. coli BL21 (value indicates MIC not IC50)” value with E. coli BL21 (NaN3 control) amounted to 4000 µM. Further, the “Bacterial Viability, E. coli MC4100 (value indicates MIC not IC50)” value in the data set on E. coli MC4100 (NaN3 control) is 4000 µM. Further, the “Growth inhibition of E. coli” value in the data set on E. coli strains (at 4 mM) was ~ 80%. In addition, the “Bacterial Viability, B. subtilis ATCC6633 (value indicates MIC not IC50)” value in the data set with B. subtilis ATCC6633 (NaN3 control) is >100000 µM. In the data set with Gram-positive bacteria, the “Concentration required for any observable inhibition of Gram-positive bacteria” value is > 100 mM. Also, the “Antibacterial concentration for E. coli” value in the data set with E. coli is reported as 3 to 4.6 mM.

In general, solubility refers to how much of the substance goes into solution per volume. On to `CN(C)c1c(C(=O)O)cnc2ccccc12` [HSI#07], for which the IC50 in data set [1] is 19 µM; in data set [2] it was 26.4 µM; in data set [3] (setting [9]) it was 19.9 µM; in data set [4], 19 µM; in the data set on E. coli BL21 it was > 100 µM; in the data set with E. coli MC4100 it was > 100 µM. Also, the IC50 with E. coli BW25113 and in the data set on B. subtilis ATCC6633 was > 100 µM in each case. The “Toxicity of Mammalian Cells (HEK293T) LD50” value (“Toxicity of Mammalian Cells” for short) in the data set on HEK293T cells is listed as 60.2 µM. Moreover, in [5], the solubility at 1 h was 150 µM and 32.4 µg/mL.

Take `O=C(O)c1cnc2ccc(Cl)cc2c1O` [HSI#12]: the IC50 in [1] is 11.5 µM; in [2], 11.2 µM; in [3] (setting [9]), 26 µM; in [4], 19 µM; with E. coli BL21 it was 60 µM; in the data set on E. coli MC4100, > 100 µM. In addition, the concentration for half-maximal inhibition (IC50) in the data set on E. coli BW25113 is 39.7 µM; in the data set with E. coli strains (setting [10]) it was < 65 µM and > 45 µM; with E. coli strains (setting [11]), 44 to 65 µM; with B. subtilis ATCC6633 it was > 100 µM; in the data set with E. coli BW25113ΔtolC, 23.3 µM; in [7], 41.4 µM. The “Toxicity of Mammalian Cells” value in the data set with HEK293T cells amounted to 60.2 µM. Moreover, the solubility at 1 h in [5] was 50 µM and 11.8 µg/mL. The Antibacterial character result in [6] is “bacteriocidal”. Further, in the data set with E. coli BW25113ΔtolC, the “Higher sensitivity of ΔtolC and imp-2413+ derivatives compared to BW25113” value fell in the range of 2 to 40 times.

For the compound `O=C(O)c1cnc2cc(Cl)ccc2c1O` [HSI#14], the concentration for half-maximal inhibition (IC50) in data set [1] is 13.4 µM; in data set [2] it was 14.6 µM; in [3] (setting [9]) it was 11.5 µM; in data set [3] (read-out: Inhibition of PhoA Secretion IC50, Lab-Scale (ΔtolC strain), BW25113ΔtolC, p-nitrophenyl assay), 11.5 µM; in data set [4] it was 13.5 µM; in the data set on E. coli BL21 it was > 100 µM. Further, the half-maximal inhibitory concentration (IC50) in the data set with E. coli MC4100 was > 100 µM; with E. coli BW25113 it was 31.3 µM; in the data set with E. coli strains (setting [10]) it was < 65 µM and > 45 µM; in the data set on E. coli strains (setting [11]), 44 to 65 µM; in the data set with B. subtilis ATCC6633, > 100 µM; with E. coli BW25113ΔtolC, 17.2 µM. Besides, the concentration for half-maximal inhibition (IC50) in [7] came out at 36.2 µM. Further, in the data set with HEK293T cells, the “Toxicity of Mammalian Cells” value is recorded as 60.2 µM. Moreover, the solubility at 1 h in data set [5] was 150 µM and 33.5 µg/mL. In addition, the Antibacterial character result in data set [6] is given as “bacteriocidal”. For the same compound, the “Higher sensitivity of ΔtolC and imp-2413+ derivatives compared to BW25113” value in the data set with E. coli BW25113ΔtolC was 2 to 40 times.

As to `N=C(N)SCc1ccc(Cl)cc1` [S-(4-chlorobenzyl)isothiourea], the half-maximal inhibitory concentration (IC50) in the data set with E. coli MG1655 LolA is 150 µM.

For the compound `CC1(C)S[C@@H]2[C@H](NC(=O)[C@H](N)c3ccccc3)C(=O)N2[C@H]1C(=O)O` [ampicillin, reference compound], in data set [8] (Staphylococcus aureus ATC6538P), the 50% inhibitory concentration (IC50) came out at 0.01 µM.

Turning to `CC1(C)S[C@@H]2[C@H](NC(=O)Cc3ccccc3)C(=O)N2[C@H]1C(=O)O` [penicillin G, reference compound], the IC50 in data set [8] (setting [12]) came out at 0.5 µM.

Turning to `CN[C@H](CC(C)C)C(=O)N[C@H]1C(=O)N[C@@H](CC(N)=O)C(=O)N[C@H]2C(=O)N[C@H]3C(=O)N[C@H](C(=O)N[C@H](C(=O)O)c4cc(O)cc(O)c4-c4cc3ccc4O)[C@H](O)c3ccc(c(Cl)c3)Oc3cc2cc(c3O[C@@H]2O[C@H](CO)[C@@H](O)[C@H](O)[C@H]2O[C@H]2C[C@](C)(N)[C@H](O)[C@H](C)O2)Oc2ccc(cc2Cl)[C@H]1O` [vancomycin, reference compound], the IC50 in data set [8] (setting [12]) is 17 µM.
